Results reported in PubChem BioAssay (NCI).
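These data come from cells grown in 96-well plates and exposed to compound for 48 hours at five concentrations. GI50 is the concentration that inhibits growth by half. TGI is the concentration that stops growth completely.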

Experiments:
Assay in all cases: growth of human tumour cells (NCI), 48 h
K-562 leukemia = system: K-562 leukemia
PC-3 prostate = system: PC-3 prostate
OVCAR-4 ovarian = system: OVCAR-4 ovarian
786-0 renal = system: 786-0 renal
MDA-MB-435 = system: MDA-MB-435
KM20L2 colon = system: KM20L2 colon
DMS 114 small cell lung = system: DMS 114 small cell lung
M19-MEL melanoma = system: M19-MEL melanoma
DLD-1 colon = system: DLD-1 colon

Compound	GI50 (K-562 leukemia)	GI50 (PC-3 prostate)	TGI (PC-3 prostate)	GI50 (OVCAR-4 ovarian)	TGI (OVCAR-4 ovarian)	GI50 (786-0 renal)	TGI (786-0 renal)	GI50 (MDA-MB-435)	TGI (MDA-MB-435)	TGI (K-562 leukemia)	TGI (KM20L2 colon)	TGI (DMS 114 small cell lung)	TGI (M19-MEL melanoma)	TGI (DLD-1 colon)
CC(=O)N=c1ccc2nc3c(cc(N)c4ccccc43)oc-2c1	0.389 µM	1.05 µM	5.83 µM	0.409 µM	1.64 µM	1.46 µM	2.93 µM	0.207 µM	0.421 µM	–	–	–	–	–
CCCN(CCC)c1ccc(/C=N/NC(=O)c2cccnc2)c(Cl)c1	3.75 µM	14.1 µM	> 81.3 µM	2.32 µM	35.7 µM	11.6 µM	29.1 µM	2.68 µM	12.4 µM	> 100 µM	–	–	–	–
Cc1ccc(S(=O)(=O)N2CCc3ccc(O)c4c3C2Cc2cc(Cl)ccc2-4)cc1 (stereo not given)	1.16 µM	0.917 µM	6.8 µM	1.53 µM	7.51 µM	2.3 µM	9.59 µM	0.635 µM	1.45 µM	14.8 µM	–	–	–	–
COC(=O)C1=C(C(=O)OC)C23C=C(C)C1C2=C(C)C1(CC1)[C@@](C)(O)C3=O (stereo not given in full)	6.07 µM	0.386 µM	32.9 µM	0.484 µM	6.43 µM	0.323 µM	3.05 µM	–	–	> 100 µM	–	–	–	–
CCOC(=O)c1sc(Nc2ccc(Cl)cc2)nc1C	2.57 µM	1.37 µM	3.42 µM	2.04 µM	19 µM	1.55 µM	3.14 µM	2.12 µM	4.75 µM	9.07 µM	–	–	–	–
C[C@@]12CCC(=O)C=C1CC[C@H]1C2=CC[C@]2(C)C1CC[C@@]2(C)O (stereo not given in full)	–	–	> 100 µM	–	> 100 µM	–	> 100 µM	–	> 100 µM	> 100 µM	–	–	–	–
CCCc1nc2c(C)cc(-c3nc4ccccc4n3C)cc2n1Cc1ccc(-c2ccccc2C(=O)O)cc1	23.2 µM	29.4 µM	> 100 µM	50.6 µM	> 100 µM	41.4 µM	> 100 µM	33.9 µM	> 100 µM	> 100 µM	–	–	–	–
O=C(Nc1nc2ncn(CC(COc3ccccc3)OC(=O)c3ccccc3)c2c(=O)[nH]1)c1ccccc1 (stereo not given)	–	–	–	–	> 100 µM	–	> 100 µM	–	–	> 100 µM	> 100 µM	> 100 µM	> 100 µM	–
N#Cc1ccnc(N2C(=O)CC[C@H]2C(=O)N(c2cncc(F)c2)[C@H](C(=O)NC2CC(F)(F)C2)c2ccccc2Cl)c1	> 100 µM	> 100 µM	> 100 µM	39.1 µM	> 100 µM	> 100 µM	> 100 µM	64 µM	> 100 µM	> 100 µM	–	–	–	–
CCOC(=O)c1c(C(F)(F)F)n([O-])c2ccc(OC)cc2[n+]1=O	3.76 µM	2.99 µM	> 100 µM	5.39 µM	> 100 µM	6.39 µM	49.5 µM	4.47 µM	76 µM	24.9 µM	–	–	–	–
COc1ccc(-c2nc(-c3nc4ccc(OC)cc4[nH]3)cc3c2[nH]c2ccccc23)cc1	1.52 µM	1.52 µM	> 100 µM	> 100 µM	> 100 µM	4.62 µM	> 100 µM	4.31 µM	> 100 µM	> 100 µM	–	–	–	–
COc1ccc(NC(=O)c2sc3nc(C)c(C(O)c4ccccc4)cc3c2N)cc1 (stereo not given)	1.01 µM	3.31 µM	> 100 µM	3.72 µM	> 100 µM	4.63 µM	> 100 µM	0.291 µM	0.971 µM	> 100 µM	–	–	–	–
Cc1[nH]c(=O)[nH]c(=O)c1CO	> 100 µM	> 100 µM	> 100 µM	–	–	> 100 µM	> 100 µM	> 100 µM	> 100 µM	> 100 µM	–	–	–	–
O=C1CCC2(CC1)SCCCS2	–	–	–	–	> 100 µM	–	> 100 µM	–	–	> 100 µM	> 100 µM	> 100 µM	> 100 µM	> 100 µM
COc1cc(-c2cc(-c3nc4ccc(Cl)cc4[nH]3)[nH]n2)cc(OC)c1OC	3.04 µM	2.47 µM	8.29 µM	1.38 µM	4.37 µM	5.32 µM	18.3 µM	3.3 µM	12.7 µM	> 100 µM	–	–	–	–
COc1cc(/C=C2\COc3ccc(O)c(O)c3C2=O)cc(OC)c1	0.471 µM	1.61 µM	7.85 µM	2.2 µM	14.2 µM	1.54 µM	3.78 µM	1.52 µM	3.98 µM	> 100 µM	–	–	–	–
NCc1nnn(Cc2ccccc2)c1N	–	–	> 100 µM	–	> 100 µM	–	> 100 µM	–	> 100 µM	> 100 µM	–	–	–	–
NCCC(O)(P(=O)(O)O)P(=O)(O)O	> 100 µM	–	–	> 100 µM	> 100 µM	> 100 µM	> 100 µM	> 100 µM	> 100 µM	> 100 µM	–	–	–	–
CN(C)CCCc1c[nH]c2ccccc12	–	–	> 100 µM	–	> 100 µM	–	> 100 µM	–	> 100 µM	> 100 µM	–	–	–	–
Nc1c(C(=O)Nc2ccccc2Cl)sc2nc3c(cc12)CCCCCC3	0.541 µM	15.4 µM	> 100 µM	2.11 µM	5.1 µM	1.75 µM	3.27 µM	0.275 µM	1.1 µM	> 100 µM	–	–	–	–
Nc1ccc(/C=N/Nc2ccnc3c(N)cccc23)c2cccnc12	–	–	–	1.54 µM	3.35 µM	1.59 µM	3.04 µM	1.64 µM	3.16 µM	–	–	–	–	–
COc1ccc2c(c1)CCC1C2CC[C@]2(C)/C(=N/OC(=O)Cc3ccccc3)CCC12 (stereo not given in full)	–	18.5 µM	59.4 µM	18.4 µM	48.5 µM	18.3 µM	33.3 µM	16.7 µM	30.5 µM	–	–	–	–	–
CCC(=C/[C@H](C)C/C=C/C(C)=C/[C@@H](C)C(=O)[C@@H](C)[C@H](O)[C@@H](C)CC)/C=C/[C@H]1OC(=O)C=C[C@H]1C	< 0.01 µM	< 0.01 µM	1.57 µM	< 0.01 µM	1.29 µM	< 0.01 µM	0.642 µM	< 0.01 µM	0.0256 µM	< 0.01 µM	–	–	–	–
COc1ccc(-c2ccc(C3CC(c4ccc(Cl)cc4)=NN3)o2)c([N+](=O)[O-])c1 (stereo not given)	> 100 µM	> 100 µM	> 100 µM	> 100 µM	> 100 µM	> 100 µM	> 100 µM	> 100 µM	> 100 µM	> 100 µM	–	–	–	–
